Reference: PMC9091416 (RSC Advances, 2018)

Experiments:
Assay in all cases: cells
[1] = system: NCM460 cells; format: cell-based; conditions: Homo sapiens, NCM460, read-out: IC50 (μM) ± SD (μM), NCM460
[2] = system: HCT-116 cells; format: cell-based, human
[3] = system: DLD1 cells; format: cell-based; conditions: Homo sapiens, DLD-1, read-out: IC50 (μM) ± SD (μM), DLD1
[4] = system: RKO cells; format: cell-based; conditions: Homo sapiens, read-out: IC50 (μM) ± SD (μM), RKO

Structure (SMILES): CC(=O)OC[C@H]1OC(OC(C)=O)[C@H](n2cc(C(=O)NC3([As](O)O)C=CC=CC3)nn2)[C@@H](OC(C)=O)[C@@H]1OC(C)=O (stereo partly drawn) [Compound 8, 1-(1-(1,3,4,6-tetra-O-acetyl-2-deoxy-D-glucopyranos-2-yl) -1H-1,2,3-triazole-4-carboxamido)phenyl arsonous acid]
- IC50 [1]: 16.1 ± 2.21 µM
- Selectivity index [2]: 0.91
- IC50 ([2]; Homo sapiens, HCT-116, read-out: IC50 (μM) ± SD (μM), HCT-116): 17.7 ± 1.44 µM
- IC50 [3]: 15 ± 2.72 µM
- IC50 [4]: 4.57 ± 0.17 µM
